Assay results from patent US20250114420A1, “ANTIMICROBIAL NATURAL COMPOSITIONS” (BIO-ACTIVES SYNERGIO LTD, priority 2022, published 2025).

What was measured:
E. coli (EC) = assay: Agar dilution test; assay type: cell-based, Escherichia coli; parameters: key: (+) indicates growth; (+/−) indicates partial growth; (−) indicates no growth; conditions: Table 4, 24-48 hours
Procedure: (§1) An agar dilution test was carried out for various combinations of saponin extract (Sapindus mukorossi) and Styrax extract (Sumatra benzoin), with maltol extracted from wheat as an additional plant extract, for evaluating the synergistic antimicrobial effect therebetween.
(§2) The agar dilution test was carried out as follows: TSA (tryptic soy agar) or SDA (Sabouraud dextrose agar) media were melted at 99±2° C. and kept warm until seeding (43±2° C.). Into a quota of the growth medium, the maltol and extract were added and stirred. 5 ml of the mixture was poured into each test plate and left to cool and solidify. The plates were then inoculated by defined amounts of test microorganisms (E. coli, S. aureus and P. aeruginosa used on TSA plates, C. albicans and A. brasilliensis used on the SDA plates). The plates were incubated at 25-35° C. for 24-48 hours and then assessed for microorganisms' growth.
(§3) The test results for the combinations of saponin and Styrax extracts with maltol are detailed in Table 4, while the results for the compositions of saponin and Styrax extracts with maltol and citric acid are shown in Table 5. (+) indicates growth, (+/−) indicates partial growth, while (−) indicates no growth. Positive control was obtained by utilizing a commercial preservative. […]

S. aureus (SA) = assay: Agar dilution test; assay type: cell-based, Staphylococcus aureus; parameters: key: (+) indicates growth; (+/−) indicates partial growth; (−) indicates no growth; conditions: Table 4, 24-48 hours
Procedure: as §1, §2, §3

P. aeruginosa (PA) = assay: Agar dilution test; assay type: cell-based, Pseudomonas aeruginosa; parameters: key: (+) indicates growth; (+/−) indicates partial growth; (−) indicates no growth; conditions: Table 4, 24-48 hours
Procedure: as §1, §2, §3

A. brasilliensis (AB) = assay: Agar dilution test; assay type: cell-based, Aspergillus brasiliensis; parameters: key: (+) indicates growth; (+/−) indicates partial growth; (−) indicates no growth; conditions: Table 4, 24-48 hours
Procedure: as §1, §2, §3

C. albicans (CA) = assay: Agar dilution test; assay type: cell-based, Candida albicans; parameters: key: (+) indicates growth; (+/−) indicates partial growth; (−) indicates no growth; conditions: Table 4, 24-48 hours
Procedure: as §1, §2, §3

[1] = tested on: mixture of S. aureus, S. capitis, S. epidermis and S. hominis; assay: Agar plates of cream samples inoculated with skin microbiota mixture (FIGS. 1A-1D); assay type: cell-based; conditions: cream sample; after 7 hours of incubation
Procedure: FIGS. […] The upper panel of each agar plate was plated with mixture of representative microorganisms to provide a control to each of the experiments.
The mixture of microorganisms represents the natural skin microbiota. […] In comparison, FIGS. 1C and 1D show samples of the cream with the bottom half of the sample containing the compositions 5A and 5B, respectively, and without preservative in the upper half.

| SMILES | Agar dilution test result (growth), EC (E. coli (EC); Teat 2 (duplicate)) | Agar dilution test result (growth), EC (E. coli (EC); Test 1) | Agar dilution test result (growth), SA (S. aureus (SA); Teat 2 (duplicate)) | Agar dilution test result (growth), SA (S. aureus (SA); Test 1) | Agar dilution test result (growth), PA (P. aeruginosa (PA); Teat 2 (duplicate)) | Agar dilution test result (growth), PA (P. aeruginosa (PA); Test 1) | Agar dilution test result (growth), AB (A. brasilliensis (AB); Teat 2 (duplicate)) | Agar dilution test result (growth), AB (A. brasilliensis (AB); Test 1) | Agar dilution test result (growth), CA (C. albicans (CA); Teat 2 (duplicate)) | Agar dilution test result (growth), CA (C. albicans (CA); Test 1) | effect on natural skin microbiota on agar plate (FIGS. 1A-1D) [1] |
| --- | --- | --- | --- | --- | --- | --- | --- | --- | --- | --- | --- |
| Cc1occc(=O)c1O [ML 0.1%, maltol] | + | + | − | − | − | − | +/− | +/− | − | − |  |
| Cc1occc(=O)c1O [ML 0.02%, maltol] | + | + | + | + | + | + | + | + | + | + |  |
| Cc1occc(=O)c1O [ML 0.2%, maltol] | − | − | − | − | − | − | − | − | − | − |  |
| Cc1occc(=O)c1O [ML 0.04%, maltol] | + | + | +/− | +/− | + | + | + | + | +/− | +/− |  |
| Cc1occc(=O)c1O [ML 0.05%, maltol] | + | + | +/− | +/− | +/− | +/− | + | + | + | + |  |
| Cc1occc(=O)c1O [ML 0.08%, maltol] | +/− | +/− | + | + | − | − | +/− | +/− | − | − |  |
| CCCCC(CC)COCC(O)CO (stereo not shown) [commercial synthetic preservative, ethylhexyl glycerin] |  |  |  |  |  |  |  |  |  |  | almost complete elimination of the microbiota |
